Read-outs that look alike come from different tables or passages of the source.
Key:
CF-1 mice = test: s.c.PTZ seizure threshold test; type: in vivo, mouse; conditions: 150 mg/kg i.p.
Description: Male audiogenic-susceptible (AGS) Frings mice were obtained from an in-house breeding facility at the University of Utah (Salt Lake City, UT, USA). Male CF-1 mice for the maximal electroshock (MES) test and the subcutaneous pentylenetetrazol (s.c.PTZ) seizure threshold test were purchased from Charles River (Kingston, WA, USA). All mice were housed in a temperature, humidity, and light (on at 6:00 AM) controlled facility at the University of Utah with access to ad libitum food and water except during testing. All procedures were carried out at the University of Utah in concordance with the National Institutes of Health Guidelines for the Care and Use of Laboratory Animals and under approval from the University of Utah’s Institutional Animal Care and Use Committee. The mice were euthanized in accordance with Public Health Service policies on the humane care of laboratory animals. SBV2-114 was tested for its ability to prevent a minimal clonic seizure in the s.c.PTZ seizure test, which is a test of generalized myoclonic seizures. […] At the TPE, mice were challenged with a s.c. dose of PTZ (85 mg/kg) and observed for 30 min for the presence or absence of a minimal clonic seizure characterized by minimal forelimb clonus and/or vibrissae twitching. Mice not displaying this phenotypic behaviour were considered protected.

hBGT1 = biological target: T1, hBGT1 (Homo sapiens, UniProt P48065); test: [3H]GABA uptake at hBGT1 transiently expressed in tsA201 cells; type: cell-based
T1 construct: expressed in transfected cells; host or cells: tsA201 (transient)
T1 sequence (P48065 1-614): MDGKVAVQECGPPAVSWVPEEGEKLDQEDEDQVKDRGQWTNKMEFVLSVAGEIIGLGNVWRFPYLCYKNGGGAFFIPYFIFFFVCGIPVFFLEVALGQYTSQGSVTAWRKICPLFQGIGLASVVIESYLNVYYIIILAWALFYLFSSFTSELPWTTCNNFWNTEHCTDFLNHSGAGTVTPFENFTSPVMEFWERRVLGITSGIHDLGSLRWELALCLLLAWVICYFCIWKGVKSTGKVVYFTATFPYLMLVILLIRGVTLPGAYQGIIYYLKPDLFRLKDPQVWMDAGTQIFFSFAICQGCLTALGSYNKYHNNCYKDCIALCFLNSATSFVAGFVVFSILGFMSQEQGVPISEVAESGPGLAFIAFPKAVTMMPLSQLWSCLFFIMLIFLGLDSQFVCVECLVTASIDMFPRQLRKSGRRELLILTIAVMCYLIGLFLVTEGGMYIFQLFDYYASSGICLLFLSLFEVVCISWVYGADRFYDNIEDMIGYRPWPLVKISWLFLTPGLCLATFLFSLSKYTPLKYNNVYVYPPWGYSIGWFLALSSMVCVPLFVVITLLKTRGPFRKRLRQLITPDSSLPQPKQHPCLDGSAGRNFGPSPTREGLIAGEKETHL
Procedure: The tsA201 cell line was used for transient expression while the MDCK II cell line express BGT1 endogenously. Both cell lines were cultured as described. tsA201 cells were transfected with DNA constructs (8 μg per 10 cm dish if not otherwise mentioned) using 40 μL PolyFect transfection reagent according to the manufacturer’s protocol (Qiagen, Venlo, Netherlands). The DNA constructs encoding hBGT1, hGAT1-3 [36], the mutated constructs hBGT1 Q299 and hGAT3 L314Q described previously, and hBGT Y453A were synthesized and sequence validated by Genscript (NJ, USA).
The [^3H]GABA competition uptake assay was performed as previously described. […] Studies related to the inhibition curves with GABA and BPDBA at hBGT1 were obtained both with and without the presence of 10 μM ATP during the [^3H]GABA uptake assay.
All compounds, except BAPTA/AM, were also present at the same concentration during the course of the actual [^3H]GABA uptake assay.
The [^3H]GABA uptake data was normalized to the percentage of total uptake in the individual experiments in the presence of the lowest compound concentration or no compound present. Data presented is the pooled data of at least three independent experiments with three technical replicates. Concentration–response curves (CRCs) were fitted with GraphPad Prism (version 8.2.1, Yosemite, GraphPad Software, San Diego, CA, USA) by non-linear regression to the sigmoidal concentration response model: Y=Bottom+(Top-Bottom)/1+10^LogIC50-X∗nH where Top is the Top plateau, Bottom is the Bottom plateau, X is the logarithm of the concentration of the compound, LogIC50 is the concentration giving a response halfway between Top and Bottom,and nH is the Hill slope.
The best fit for CRCs obtained with the [^3H]GABA uptake assay was identified by the extra-sum-of-squares F test (for convenience referred to as F test).

5-HT2A = biological target: T2, 5-HT2A (Homo sapiens, UniProt P28223); test: NIMH PDSP radioligand binding, 5-HT2A; conditions: radioligand [3H]ketanserin, n=4
T2 construct: purchased NIMH Psychoactive Drug Screening Program (PDSP)
T2 sequence (P28223 whole entry): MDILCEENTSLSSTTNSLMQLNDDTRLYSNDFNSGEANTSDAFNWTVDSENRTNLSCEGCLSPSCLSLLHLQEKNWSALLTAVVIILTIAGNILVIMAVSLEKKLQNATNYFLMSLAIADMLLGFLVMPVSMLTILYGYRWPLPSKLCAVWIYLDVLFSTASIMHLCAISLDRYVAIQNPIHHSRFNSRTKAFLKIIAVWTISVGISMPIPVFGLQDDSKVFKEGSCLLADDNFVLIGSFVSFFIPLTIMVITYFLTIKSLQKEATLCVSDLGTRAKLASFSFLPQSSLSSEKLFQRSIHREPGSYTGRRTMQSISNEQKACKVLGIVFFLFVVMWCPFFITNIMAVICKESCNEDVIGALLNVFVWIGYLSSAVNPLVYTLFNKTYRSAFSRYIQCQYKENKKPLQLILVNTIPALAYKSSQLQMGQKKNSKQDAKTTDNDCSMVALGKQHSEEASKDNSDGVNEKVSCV

D2 = biological target: T3, D2 (Homo sapiens, UniProt P14416); test: NIMH PDSP radioligand binding, D2; conditions: radioligand [3H]N-methylspiperone, n=4
T3 construct: purchased NIMH Psychoactive Drug Screening Program (PDSP)
T3 sequence (P14416 whole entry): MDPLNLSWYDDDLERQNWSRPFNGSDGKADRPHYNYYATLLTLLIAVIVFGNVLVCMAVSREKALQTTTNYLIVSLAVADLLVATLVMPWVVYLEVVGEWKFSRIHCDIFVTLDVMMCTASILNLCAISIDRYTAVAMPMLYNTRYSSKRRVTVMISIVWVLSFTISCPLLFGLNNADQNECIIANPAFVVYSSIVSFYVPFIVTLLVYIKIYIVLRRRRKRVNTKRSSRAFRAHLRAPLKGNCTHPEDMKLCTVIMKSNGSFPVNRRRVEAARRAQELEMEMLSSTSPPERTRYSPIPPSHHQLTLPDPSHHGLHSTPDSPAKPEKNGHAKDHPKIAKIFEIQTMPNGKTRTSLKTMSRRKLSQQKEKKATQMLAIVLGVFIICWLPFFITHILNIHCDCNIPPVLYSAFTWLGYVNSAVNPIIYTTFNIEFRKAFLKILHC

5-HT1A = biological target: T4, 5-HT1A (Homo sapiens, UniProt P08908); test: NIMH PDSP radioligand binding, 5-HT1A; conditions: radioligand [3H]8-OH-PDAT, n=4
T4 construct: purchased NIMH Psychoactive Drug Screening Program (PDSP)
T4 sequence (P08908 whole entry): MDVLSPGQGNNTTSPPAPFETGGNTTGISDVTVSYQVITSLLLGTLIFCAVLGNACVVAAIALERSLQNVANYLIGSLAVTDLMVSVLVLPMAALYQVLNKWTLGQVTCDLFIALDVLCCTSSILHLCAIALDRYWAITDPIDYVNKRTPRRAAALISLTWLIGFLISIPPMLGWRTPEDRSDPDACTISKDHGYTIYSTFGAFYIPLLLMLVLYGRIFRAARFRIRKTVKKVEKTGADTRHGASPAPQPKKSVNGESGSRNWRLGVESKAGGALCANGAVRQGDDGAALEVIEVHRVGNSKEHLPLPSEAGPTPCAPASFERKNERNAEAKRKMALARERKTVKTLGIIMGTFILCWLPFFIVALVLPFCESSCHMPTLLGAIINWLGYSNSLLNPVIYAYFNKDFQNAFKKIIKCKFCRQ

[1] = 30 min pre-incubation with 25 μM BAPTA/AM
[2] = control: 30 min pre-incubation in assay buffer

`Cc1ccsc1C(=CCCN(C)[C@H]1CCCC[C@H]1C(=O)O)c1sccc1C` [SBV2-114, (1R,2S)-2-((4,4-bis(3-methylthiophen-2-yl)but-3-en-yl)(methyl)amino)cyclohexanecarboxylic acid] was tested, and the “effect on s.c.PTZ-induced seizures” value (CF-1 mice) was “did not block s.c.PTZ-induced seizures”, the “#Protected/#Tested” value (CF-1 mice; 30 min, PTZ 85 mg/kg s.c.) was 0/8 and the “inhibition profile (mono-/biphasic)” value (hBGT1; 30 nM [3H]GABA, 3 min, F test) was “biphasic”. The Frac (hBGT1; 2 μg cDNA (n=2)) was 0.44, the nH1 (hBGT1; 2 μg cDNA (n=2)) was -0.86 and the nH2 (hBGT1; 2 μg cDNA (n=2)) was -1.75. For the same molecule, the Frac (hBGT1; 4 μg cDNA (n=2)) was 0.32, the nH1 (hBGT1; 4 μg cDNA (n=2)) was -1.31 and the nH2 (hBGT1; 4 μg cDNA (n=2)) was 1.62. For the same molecule, the Frac (hBGT1; [1]) was 0.15, the nH1 (hBGT1; [1]) was -2.02 and the preferred curve fitting (hBGT1; 30 min pre-incubation with and presence of 1 μM A 804598) was “biphasic fit”. The preferred curve fitting (hBGT1; 30 min pre-incubation with and presence of 5 μM U-73122) was “biphasic fit”, the IC50 (hBGT1; IC50, high affinity component (low IC50), biphasic fit, 30 nM [3H]GABA, 3 min, tsA201, 8 μg cDNA) was 4.7 µM and the IC50 (hBGT1; IC50, high affinity component, 30 min pre-incubation with 25 μM BAPTA/AM) was 5.2 µM. For the same molecule, the IC50 (hBGT1; IC50, high affinity component, control: 30 min pre-incubation at 37 °C in assay buffer) was 6.1 µM, the “% inhibition (Frac value) at the low IC50” value (hBGT1; biphasic fit) was 42% and the Frac (hBGT1; cells pre-incubated for 10 min with SBV2-114 prior to uptake) was 0.34. For the same molecule, the Frac (hBGT1; [2]) was 0.21, the nH1 (hBGT1; [2]) was -0.76 and the nH2 (hBGT1; [2]) was -2.05. For the same molecule, the IC50 (hBGT1; pIC50 ± S.E.M., high affinity component, 2 μg cDNA (n=2), biphasic fit) was 3.39 µM, the IC50 (hBGT1; pIC50 ± S.E.M., high affinity component, 4 μg cDNA (n=2), biphasic fit) was 2.19 µM and the IC50 (hBGT1; pIC50 ± S.E.M., high affinity component, biphasic fit, 30 nM [3H]GABA, 3 min, tsA201, 8 μg cDNA) was 5.25 µM. The Frac (hBGT1; proportion of maximal response due to the more potent phase, 8 μg cDNA) was 0.42, the IC50 (hBGT1; read-out: IC50, low affinity component (high IC50), biphasic fit, 30 nM [3H]GABA, 3 min, tsA201, 8 μg cDNA) was 556 µM and the IC50 (hBGT1; read-out: IC50, low affinity component, 2 μg cDNA (n=2), biphasic fit) was 518 µM. For the same molecule, the IC50 (hBGT1; read-out: IC50, low affinity component, 4 μg cDNA (n=2), biphasic fit) was 514 µM, the IC50 (hBGT1; read-out: IC50, low affinity component, 30 min pre-incubation with 25 μM BAPTA/AM) was 513 µM and the IC50 (hBGT1; read-out: IC50, low affinity component, control: 30 min pre-incubation at 37 °C in assay buffer) was 507 µM. It also gave an inhibition at 10 µM (5-HT2A) of 20%, an inhibition at 10 µM (D2) of 12.3% and an inhibition at 10 µM (5-HT1A) of -7.9%.

From paper PMC7297817, “Pharmacological Characterization of a Betaine/GABA Transporter 1 (BGT1) Inhibitor Displaying an Unusual Biphasic Inhibition Profile and Anti-seizure Effects” (Neurochemical Research, 2020)
